Experimental data published in the supplement of paper PMC11451515.

Test system: SEM cells
Assay: cell viability relative to DMSO control; higher = less cytotoxic
Conditions: 48 h
Outline: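 NOMO1 or SEM (500 cells/well) or P12-Ichikawa (1000 cells/well) leukemia cells were adapted for at least four passages in each medium. They were seeded in 1536-well plates (5 μl) and pin-dosed with library compounds in DMSO over an 11-point threefold series, 47 μM to 0.79 nM. CellTiter-Glo One luminescence was read after 48 h at 37°C. Viability is the per-plate percentage relative to DMSO wells, with cell-free wells as background.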

[1] = HPLM + 10% dialyzed FBS, 0.000781 µM
[2] = HPLM + 10% dialyzed FBS, 0.00234 µM
[3] = HPLM + 10% dialyzed FBS, 0.00702 µM
[4] = HPLM + 10% dialyzed FBS, 0.0211 µM
[5] = HPLM + 10% dialyzed FBS, 0.0632 µM
[6] = HPLM + 10% dialyzed FBS, 0.19 µM
[7] = HPLM + 10% dialyzed FBS, 0.569 µM
[8] = HPLM + 10% dialyzed FBS, 1.71 µM
[9] = HPLM + 10% dialyzed FBS, 5.12 µM
[10] = HPLM + 10% dialyzed FBS, 15.4 µM
[11] = HPLM + 10% dialyzed FBS, 46.1 µM
[12] = RPMI 5 mM glucose + 10% FBS, 0.000781 µM
[13] = RPMI 5 mM glucose + 10% FBS, 0.00234 µM
[14] = RPMI 5 mM glucose + 10% FBS, 0.00702 µM
[15] = RPMI 5 mM glucose + 10% FBS, 0.0211 µM
[16] = RPMI 5 mM glucose + 10% FBS, 0.0632 µM
[17] = RPMI 5 mM glucose + 10% FBS, 0.19 µM
[18] = RPMI 5 mM glucose + 10% FBS, 0.569 µM
[19] = RPMI 5 mM glucose + 10% FBS, 1.71 µM
[20] = RPMI 5 mM glucose + 10% FBS, 5.12 µM
[21] = RPMI 5 mM glucose + 10% FBS, 15.4 µM
[22] = RPMI 5 mM glucose + 10% FBS, 46.1 µM
[23] = RPMI 5 mM glucose + 10% dialyzed FBS, 0.000781 µM
[24] = RPMI 5 mM glucose + 10% dialyzed FBS, 0.00234 µM
[25] = RPMI 5 mM glucose + 10% dialyzed FBS, 0.00702 µM
[26] = RPMI 5 mM glucose + 10% dialyzed FBS, 0.0211 µM
[27] = RPMI 5 mM glucose + 10% dialyzed FBS, 0.0632 µM
[28] = RPMI 5 mM glucose + 10% dialyzed FBS, 0.19 µM
[29] = RPMI 5 mM glucose + 10% dialyzed FBS, 0.569 µM
[30] = RPMI 5 mM glucose + 10% dialyzed FBS, 1.71 µM
[31] = RPMI 5 mM glucose + 10% dialyzed FBS, 5.12 µM
[32] = RPMI 5 mM glucose + 10% dialyzed FBS, 15.4 µM
[33] = RPMI 5 mM glucose + 10% dialyzed FBS, 46.1 µM

Compound | cell viability [1] [%] | cell viability [2] [%] | cell viability [3] [%] | cell viability [4] [%] | cell viability [5] [%] | cell viability [6] [%] | cell viability [7] [%] | cell viability [8] [%] | cell viability [9] [%] | cell viability [10] [%] | cell viability [11] [%] | cell viability [12] [%] | cell viability [13] [%] | cell viability [14] [%] | cell viability [15] [%] | cell viability [16] [%] | cell viability [17] [%] | cell viability [18] [%] | cell viability [19] [%] | cell viability [20] [%] | cell viability [21] [%] | cell viability [22] [%] | cell viability [23] [%] | cell viability [24] [%] | cell viability [25] [%] | cell viability [26] [%] | cell viability [27] [%] | cell viability [28] [%] | cell viability [29] [%] | cell viability [30] [%] | cell viability [31] [%] | cell viability [32] [%] | cell viability [33] [%]
O=C(O)c1cc(O)c2c(c1)C(=O)c1cccc(O)c1C2=O | 112 | 113 | 103 | 108 | 110 | 116 | 89.7 | 111 | 96.8 | 92.9 | 91.9 | 105 | 108 | 105 | 106 | 104 | 120 | 108 | 111 | 97.9 | 92.9 | 84.4 | 119 | 116 | 108 | 117 | 118 | 105 | 111 | 113 | 116 | 96.6 | 84.9
C[C@H](NC(=O)Cc1cc(F)cc(F)c1)C(=O)N[C@H](C(=O)OC(C)(C)C)c1ccccc1 | 100 | 96.2 | 91.7 | 89.2 | 102 | 69.9 | 92.1 | 85.6 | 79.7 | 87.9 | 70.2 | 103 | 92.3 | 98.3 | 105 | 107 | 87.3 | 96.5 | 88.6 | 102 | 88.7 | 71.4 | 90.6 | 91.6 | 80.6 | 103 | 96.9 | 89.2 | 91.3 | 79.6 | 74.7 | 86.9 | 70.3
c1cc(-c2cnn3cc(-c4ccc(OCCN5CCCCC5)cc4)cnc23)ccn1 | 69.3 | 58.4 | 94.8 | 34.4 | 32.7 | 31.1 | 27.9 | 96.2 | 88.5 | 8.18 | 30.9 | 103 | 76.7 | 121 | 63.7 | 51.6 | 43.4 | 34.8 | 103 | 105 | 40.4 | 23.3 | 91.5 | 60.9 | 99.8 | 45.4 | 31.8 | 24 | 25.9 | 90 | 78.4 | 42.2 | 23.7
CCOC(=O)N1CCN(/[N+]([O-])=N/Oc2cc(O/N=[N+](\[O-])N3CCN(C(=O)OCC)CC3)c([N+](=O)[O-])cc2[N+](=O)[O-])CC1 | 90.7 | 86.6 | 93 | 98.6 | 117 | 115 | 122 | 74.4 | 119 | 117 | 116 | 129 | 110 | 118 | 137 | 142 | 138 | 136 | 101 | 142 | 145 | 128 | 117 | 113 | 130 | 145 | 166 | 138 | 134 | 108 | 113 | 142 | 122
